Laboratory results as given in patent US20130004579A1, “Use of Plant Lectins to Target Leukocytes” (priority 2011, published 2013).

What was measured:
[1] = test system: C57BL/6 splenocytes, B cells (CD19+); test: Lectin-conjugated NR-PS particle uptake by splenocyte populations (Example 8): B cells; type: cell-based, mouse; details: lectin 100 μg/ml; live cells
Procedure: (§1) Splenocytes were isolated from C57BL/6 mice and cultured as described above, at a density of 2×10^6 cells/ml in a 96 well U-bottomed plate, in 100 μl of complete RPMI 1640 medium. Cells were incubated for 5, 10 or 30 minutes at 37° C. with NR-PS particles (5, 50 or 100 μg/ml) or NR-PS particles (5, 50 or 100 μg/ml) conjugated with biotinylated UEA-1 (100 μg/ml), biotinylated SBA (100 μg/ml), biotinylated PHA-E ([…]), biotinylated PHA-L (100 μg/ml) or biotinylated DSL (100 μg/ml). Cells were transferred to FACS tubes, washed in FACS buffer, centrifuged at 1200 rpm for 5 minutes (×3) and resuspended in 100 μl FACS buffer. Cells were then incubated with Fc Block™ (2.5 μg/ml; BD Pharmingen, San Diego, Calif.) for 10 minutes. Determination of cell types was achieved by labelling characteristic cell surface markers with fluorescently-labelled antibodies—T cells were determined as being CD3^+, dendritic cells CD11c^+, macrophages F4/80^+, granulocytes Gr1^+ and B cells CD19^+. Cells were incubated on ice for 30 minutes in the dark and then washed in FACS buffer and centrifuged at 1200 rpm for 5 minutes (×3). After washing, cells were resuspended in 200 μl of FACS buffer.
(§2) A CyAn™ ADP flow cytometer (Beckman Coulter, Inc., Miami, Fla.), Summit™ software (Dako North America, Inc., Carpinteria, Calif.) and FlowJo™ software (Treestar, Inc., Ashland, Oreg.) were used to analyze the uptake of particles by various cells populations. Live cells were gated on by their FSC and SSC properties in order to roughly estimate the degree of cell death. Particle uptake was calculated for each cell subtype from the data in FIGS. 11A-11D, showing the percentages of both cell marker- and particle-positive cells within the live cell population. Unstimulated cells were used as controls.

[2] = test system: C57BL/6 splenocytes, T cells (CD3+); test: Lectin-conjugated NR-PS particle uptake by splenocyte populations (Example 8): T cells; type: cell-based, mouse; details: lectin 100 μg/ml; live cells
Procedure: as §1, §2

[3] = test system: C57BL/6 splenocytes, granulocytes (Gr1+); test: Lectin-conjugated NR-PS particle uptake by splenocyte populations (Example 8): granulocytes; type: cell-based, mouse; details: lectin 100 μg/ml; live cells
Procedure: as §1, §2

[4] = test system: Bone marrow-derived macrophages (iBMMs); test: Flow cytometry uptake of lectin-conjugated NR-PS particles by live iBMMs (Example 6); type: cell-based; details: 10 minute incubation; lectin 100 μg/ml
Procedure: (§3) C57BL/6 BMDCs and iBMMs were isolated and cultured as described above at a density of 1×10^6 cells/ml in a 96 well U-bottomed plate in 100 μl complete RPMI 1640 medium with 10 ng/ml GM-CSF. Cells were stimulated for 10 or 30 minutes at 37° C. with NR-PS particles (5, 50 or 100 μg/ml) or NR-PS particles (5, 50 or 100 μg/ml) conjugated with biotinylated UEA-1 (100 μg/ml), biotinylated SBA (100 μg/ml), biotinylated PHA-E (100 μg/ml), biotinylated PHA-L (100 μg/ml) or biotinylated DSL (100 μg/ml). Cells were then scraped into FACS tubes, washed in FACS buffer, centrifuged at 1200 rpm for 5 minutes (×3) and resuspended in 200 μl of FACS buffer.
(§4) A FACSCanto™ II flow cytometer (BD Biosciences, San Jose, Calif.), FACSDiva™ software (BD Biosciences, San Jose, Calif.) and FlowJo™ software (Treestar, Inc., Ashland, Oreg.) were used to analyze the uptake of particles by various cell populations. Live cells were gated on by their FSC and SSC properties in order to estimate the degree of cell death. Particle uptake was quantified by determining the percentage of live cells taking up particles. Unstimulated cells were used as controls.

[5] = test system: C57BL/6 splenocytes, macrophages (F4/80+); test: Lectin-conjugated NR-PS particle uptake by splenocyte populations (Example 8): macrophages; type: cell-based, mouse; details: lectin 100 μg/ml; live cells
Procedure: as §1, §2

[6] = test system: C57BL/6 splenocytes, dendritic cells (CD11c+); test: Lectin-conjugated NR-PS particle uptake by splenocyte populations (Example 8): dendritic cells; type: cell-based, mouse; details: lectin 100 μg/ml; live cells
Procedure: as §1, §2

C57BL/6 BMDCs = test: Flow cytometry uptake of lectin-conjugated NR-PS particles by live BMDCs (Example 6); type: cell-based, mouse; details: 30 minute incubation; lectin 100 μg/ml
Procedure: as §3, §4

Substance	percentage of B cells found to have taken up particles [1] [%]	percentage of T cells found to have taken up particles [2] [%]	percentage of granulocytes found to have taken up particles [3] [%]	percentage of live iBMMs found to have taken up particles [4] [%]	percentage of macrophages found to have taken up particles [5] [%]	percentage of dendritic cells found to have taken up particles [6] [%]	percentage of live BMDCs found to have taken up particles (C57BL/6 BMDCs) [%]
NR-PS particles conjugated with biotinylated PHA-E: Nile Red streptavidin-coated polystyrene particles conjugated with biotinylated Phaseolus vulgaris erthyroagglutinin	45.5	18.1	74.0	91.0	79.4	67.7	89.7
NR-PS particles conjugated with biotinylated PHA-L: Nile Red streptavidin-coated polystyrene particles conjugated with biotinylated Phaseolus vulgaris leukoagglutinin	80.5	62.4	80.7	79.6	89.9	79.0	89.6
NR-PS particles conjugated with biotinylated SBA: Nile Red streptavidin-coated polystyrene particles conjugated with biotinylated soybean agglutinin	70.8	6.4	65.6	93.4	84.8	56.3	83.2
